pKi: −log10 of the molar value.
These compounds were tested against T1, Human Neuropeptide Y2 Receptor (Homo sapiens, UniProt P49146) (assay: Radioligand binding competition assay (RLB)). Conditions: Table 3; human 125I-PYY (1-36) 0.02 nM, Y2 receptor membranes; read-out: Ki.
T1 construct: purchased CHEMICON HTS066M
T1 sequence (P49146 1-381): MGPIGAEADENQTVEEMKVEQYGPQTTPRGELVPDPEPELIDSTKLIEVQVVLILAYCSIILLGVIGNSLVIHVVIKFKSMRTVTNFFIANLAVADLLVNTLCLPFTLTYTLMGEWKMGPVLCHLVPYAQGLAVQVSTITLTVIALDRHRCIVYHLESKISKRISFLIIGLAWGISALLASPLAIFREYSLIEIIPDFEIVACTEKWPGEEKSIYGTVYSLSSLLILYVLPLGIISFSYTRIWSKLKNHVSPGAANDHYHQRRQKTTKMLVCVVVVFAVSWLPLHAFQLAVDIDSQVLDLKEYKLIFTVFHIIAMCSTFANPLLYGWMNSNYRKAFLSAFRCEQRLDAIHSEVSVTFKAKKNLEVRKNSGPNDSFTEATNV
Procedure, shortened: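 Competition binding on human Y2 receptor membranes, 0.5 μg protein/well, in 50 mM HEPES, 5 mM MgCl2, 1 mM CaCl2, pH 7.4, 0.2% ovalbumin; peptides diluted from 1 mM DMSO stocks.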

Row | pKi | Compound
1 | 8.69 | CC(C)CC(=O)N[C@@H](C)C(=O)N1CCC[C@H]1C(=O)N[C@@H](CCC(=O)O)C(=O)N[C@@H](CCCCNC(=O)COCCOCCNC(=O)COCCOCCNC(=O)CC[C@H](NC(=O)CCCCCCCCCCCCCCCCC(=O)O)C(=O)O)C(=O)N1CCC[C@H]1C(=O)N[C@@H](CCC(=O)O)C(=O)N[C@@H](CCC(=O)O)C(=O)N[C@@H](C)C(=O)N[C@@H](C)C(=O)N[C@@H](CO)C(=O)N1CCC[C@H]1C(=O)N[C@@H](CCC(=O)O)C(=O)N[C@@H](CCC(=O)O)C(=O)N[C@@H](CC(C)C)C(=O)N[C@@H](CCC(N)=O)C(=O)N[C@@H](CCCNC(=N)N)C(=O)N[C@@H](Cc1ccc(O)cc1)C(=O)N[C@@H](Cc1ccc(O)cc1)C(=O)N[C@H](C(=O)N[C@H](C(=O)N[C@@H](CC(C)C)C(=O)N[C@@H](CCCNC(=N)N)C(=O)N[C@@H](Cc1c[nH]cn1)C(=O)N[C@@H](Cc1ccc(O)cc1)C(=O)N[C@@H](Cc1ccc(O)cc1)C(=O)N[C@@H](CC(N)=O)C(=O)N[C@@H](Cc1c[nH]c2ccccc12)C(=O)N[C@@H](CC(C)C)C(=O)N[C@H](C(=O)N[C@@H](CCCNC(=N)N)C(=O)N[C@@H](CCC(N)=O)C(=O)N[C@@H](CCCNC(=N)N)C(=O)N[C@@H](Cc1ccc(O)cc1)C(N)=O)[C@@H](C)O)[C@@H](C)O)C(C)C [Compound 184, N{alpha-4}-(3-methylbutanoyl)-N{epsilon-7}-[2-(2-{2-[2-(2-{2-[(4S)-4-carboxy-4-(17-carboxyheptadecanamido)butanamido]ethoxy}ethoxy)acetamido]ethoxy}ethoxy)acetamido]-[4A,7K,9E,11A,18Q,22V,23T,28Y,30W,31L]hPYY (4-36)]
2 | 8.56 | CC(C)CC(=O)N[C@@H](C)C(=O)N1CCC[C@H]1C(=O)N[C@@H](CCC(=O)O)C(=O)N[C@@H](CCCCNC(=O)COCCOCCNC(=O)COCCOCCNC(=O)CC[C@H](NC(=O)CCCCCCCCCCCCCCCCC(=O)O)C(=O)O)C(=O)N1CCC[C@H]1C(=O)N[C@@H](CCC(=O)O)C(=O)N[C@@H](CCC(=O)O)C(=O)N[C@@H](CC(=O)O)C(=O)N[C@@H](C)C(=O)N[C@@H](CO)C(=O)N1CCC[C@H]1C(=O)N[C@@H](CCC(=O)O)C(=O)N[C@@H](CCC(=O)O)C(=O)N[C@@H](CC(C)C)C(=O)N[C@@H](CCC(N)=O)C(=O)N[C@@H](CCCNC(=N)N)C(=O)N[C@@H](Cc1ccc(O)cc1)C(=O)N[C@@H](Cc1ccc(O)cc1)C(=O)N[C@H](C(=O)N[C@@H](CO)C(=O)N[C@@H](CC(C)C)C(=O)N[C@@H](CCCNC(=N)N)C(=O)N[C@@H](Cc1c[nH]cn1)C(=O)N[C@@H](CCC(N)=O)C(=O)N[C@@H](Cc1ccc(O)cc1)C(=O)N[C@@H](CC(N)=O)C(=O)N[C@@H](Cc1c[nH]c2ccccc12)C(=O)N[C@@H](CC(C)C)C(=O)N[C@H](C(=O)N[C@@H](CCCNC(=N)N)C(=O)N[C@@H](CCC(N)=O)C(=O)N[C@@H](CCCNC(=N)N)C(=O)N[C@@H](Cc1ccc(O)cc1)C(N)=O)[C@@H](C)O)C(C)C [Compound 187, N{alpha-4}-(3-methylbutanoyl)-N{epsilon-7}-[2-(2-{2-[2-(2-{2-[(4S)-4-carboxy-4-(17-carboxyheptadecanamido)butanamido]ethoxy}ethoxy)acetamido]ethoxy}ethoxy)acetamido]-[4A,7K,9E,18Q,22V,27Q,28Y,30W,31L]hPYY (4-36)]
3 | 8.68 | CC(C)CC(=O)N[C@@H](C)C(=O)N1CCC[C@H]1C(=O)N[C@@H](CCC(=O)O)C(=O)N[C@@H](CCCCNC(=O)COCCOCCNC(=O)COCCOCCNC(=O)CC[C@H](NC(=O)CCCCCCCCCCCCCCCCC(=O)O)C(=O)O)C(=O)N1CCC[C@H]1C(=O)N[C@@H](CCC(=O)O)C(=O)N[C@@H](CCC(=O)O)C(=O)N[C@@H](CC(=O)O)C(=O)N[C@@H](C)C(=O)N[C@@H](CO)C(=O)N[C@@H](CCC(=O)O)C(=O)N[C@@H](C)C(=O)N[C@@H](CCC(=O)O)C(=O)N[C@@H](CC(C)C)C(=O)N[C@@H](CCC(N)=O)C(=O)N[C@@H](CCCNC(=N)N)C(=O)N[C@@H](Cc1ccc(O)cc1)C(=O)N[C@@H](Cc1ccc(O)cc1)C(=O)N[C@H](C(=O)N[C@@H](CO)C(=O)N[C@@H](CC(C)C)C(=O)N[C@@H](CCCNC(=N)N)C(=O)N[C@@H](Cc1c[nH]cn1)C(=O)N[C@@H](Cc1ccc(O)cc1)C(=O)N[C@@H](Cc1ccc(O)cc1)C(=O)N[C@@H](CC(N)=O)C(=O)N[C@@H](Cc1c[nH]c2ccccc12)C(=O)N[C@@H](CC(C)C)C(=O)N[C@H](C(=O)N[C@@H](CCCNC(=N)N)C(=O)N[C@@H](CCC(N)=O)C(=O)N[C@@H](CCCNC(=N)N)C(=O)N[C@@H](Cc1ccc(O)cc1)C(N)=O)[C@@H](C)O)C(C)C [Compound 189, N{alpha-4}-(3-methylbutanoyl)-N{epsilon-7}-[2-(2-{2-[2-(2-{2-[(4S)-4-carboxy-4-(17-carboxyheptadecanamido)butanamido]ethoxy}ethoxy)acetamido]ethoxy}ethoxy)acetamido]-[4A,7K,9E,14E,15A,18Q,22V,28Y,30W,31L]hPYY (4-36)]
4 | 8.77 | CC[C@H](C)[C@H](NC(=O)[C@H](Cc1ccc(O)cc1)NC(=O)[C@H](Cc1ccc(O)cc1)NC(=O)[C@H](CCCNC(=N)N)NC(=O)[C@H](CCC(N)=O)NC(=O)[C@H](CC(C)C)NC(=O)[C@H](CCC(=O)O)NC(=O)[C@H](CCC(=O)O)NC(=O)[C@@H]1CCCN1C(=O)[C@H](CO)NC(=O)[C@H](C)NC(=O)[C@H](CC(=O)O)NC(=O)[C@H](CCC(=O)O)NC(=O)[C@H](CCC(=O)O)NC(=O)[C@@H]1CCCN1C(=O)[C@H](CCCCNC(=O)COCCOCCNC(=O)COCCOCCNC(=O)CC[C@H](NC(=O)CCCCCCCCCCCCCCCCC(=O)O)C(=O)O)NC(=O)[C@H](CCC(=O)O)NC(=O)[C@@H]1CCCN1C(=O)[C@H](C)NC(=O)CC(C)C)C(=O)N[C@@H](CO)C(=O)N[C@@H](CC(C)C)C(=O)N[C@@H](CCCNC(=N)N)C(=O)N[C@@H](Cc1c[nH]cn1)C(=O)N[C@@H](Cc1ccc(O)cc1)C(=O)N[C@@H](Cc1ccc(O)cc1)C(=O)N[C@@H](CC(N)=O)C(=O)N[C@@H](Cc1c[nH]c2ccccc12)C(=O)N[C@@H](CC(C)C)C(=O)N[C@H](C(=O)N[C@@H](CCCNC(=N)N)C(=O)N[C@@H](CCC(N)=O)C(=O)N[C@@H](CCCNC(=N)N)C(=O)N[C@@H](Cc1ccc(O)cc1)C(N)=O)[C@@H](C)O [Compound 191, N{alpha-4}-(3-methylbutanoyl)-N{epsilon-7}-[2-(2-{2-[2-(2-{2-[(4S)-4-carboxy-4-(17-carboxyheptadecanamido)butanamido]ethoxy}ethoxy)acetamido]ethoxy}ethoxy)acetamido]-[4A,7K,9E,18Q,22I,28Y,30W,31L]hPYY (4-36)]

From patent US12559529B2, “NPY2 receptor agonists” (Boehringer Ingelheim International GmbH, priority 2019, dated 2026)
